According to ChEMBL document CHEMBL1255511, “Design of a series of bicyclic HIV-1 integrase inhibitors. Part 1: selection of the scaffold” (Bioorg Med Chem Lett, 2010):

What was measured:
[1] = target: Human immunodeficiency virus type 1 integrase (Human immunodeficiency virus 1, UniProt Q7ZJM1); assay: Inhibition of HIV1 integrase 3'-strand transfer
[2] = test system: Human immunodeficiency virus 1; assay: Antiviral activity against HIV1 NL4-3 infected in human Hut78 cells assessed as inhibition of viral replication in presence of 10 % fetal bovine serum; format: functional, organism-based; settings: Human immunodeficiency virus 1, NL4-3, HuT78
[3] = test system: Human immunodeficiency virus 1; assay: Antiviral activity against HIV1 NL4-3 infected in human Hut78 cells assessed as inhibition of viral replication in 50 % normal human serum; format: functional, organism-based; settings: Human immunodeficiency virus 1, NL4-3, HuT78, Serum

Chain of Human immunodeficiency virus type 1 integrase (Q7ZJM1 whole entry): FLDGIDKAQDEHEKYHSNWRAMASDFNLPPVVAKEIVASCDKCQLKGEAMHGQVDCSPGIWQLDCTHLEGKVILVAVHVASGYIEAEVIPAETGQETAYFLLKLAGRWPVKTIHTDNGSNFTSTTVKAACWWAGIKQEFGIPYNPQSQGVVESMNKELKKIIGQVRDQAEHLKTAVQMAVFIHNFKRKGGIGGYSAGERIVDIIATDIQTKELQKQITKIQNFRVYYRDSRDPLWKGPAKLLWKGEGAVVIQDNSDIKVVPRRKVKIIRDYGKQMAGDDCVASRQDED

| IC50 [1] | EC50 [2] | SMILES | EC50 [3] |
| --- | --- | --- | --- |
| 1.13 µM |  | O=C(NCc1ccc(F)cc1)c1nc2sc(N3CCOCC3)cn2c(=O)c1O |  |
| > 50 µM |  | COc1cccc2c1sc1nc(C(=O)NCc3ccc(F)cc3)c(O)c(=O)n12 |  |
| > 30 µM |  | O=C(NCc1ccc(F)cc1)c1nc2sc3ccccc3n2c(=O)c1O |  |
| 5.1 µM |  | Cc1cc2nc(C(=O)NCc3ccc(F)cc3)c(O)c(=O)n2o1 |  |
| > 10 µM |  | O=C(NCc1ccc(F)cc1)c1nc2c3ccccc3on2c(=O)c1O |  |
| > 10 µM |  | O=C(NCc1ccc(F)cc1)c1nc2c3ccc(N4CCOCC4)cc3on2c(=O)c1O |  |
| 0.17 µM | 0.0095 µM | COc1cc(N2CCOCC2)cn2c(=O)c(O)c(C(=O)NCc3ccc(F)cc3)nc12 | 1.4 µM |
| 0.245 µM | 0.005 µM | CC(C)Oc1cc(N2CCOCC2)cn2c(=O)c(O)c(C(=O)NCc3ccc(F)cc3)nc12 |  |
| 0.08 µM | 0.215 µM | O=C(NCc1ccc(F)cc1)c1nc2ccc(N3CCOCC3)cn2c(=O)c1O |  |
| 0.429 µM | 0.012 µM | O=C(NCc1ccc(F)cc1)c1nc2c(OCC3CC3)cc(N3CCOCC3)cn2c(=O)c1O | 0.59 µM |
| 0.275 µM | 0.08 µM | O=C(NCc1ccc(F)cc1)c1nc2c(OCc3ccc(F)cc3)cc(N3CCOCC3)cn2c(=O)c1O |  |
| 0.755 µM | 0.73 µM | O=C(NCc1ccc(F)cc1)c1nc2c(N3CCOCC3)cc(N3CCOCC3)cn2c(=O)c1O | 1.55 µM |
| 0.085 µM | 0.006 µM | O=C(NCc1ccc(F)cc1)c1nc2c(I)cc(N3CCOCC3)cn2c(=O)c1O | 0.05 µM |
| 0.13 µM | 0.007 µM | O=C(NCc1ccc(F)cc1)c1nc2c(Br)cc(N3CCOCC3)cn2c(=O)c1O | 0.07 µM |
| 0.135 µM | 0.011 µM | O=C(NCc1ccc(F)cc1)c1nc2c(Cl)cc(N3CCOCC3)cn2c(=O)c1O | 0.158 µM |
| 0.195 µM | 0.0103 µM | O=C(NCc1ccc(F)cc1)c1nc2c(N3CCCS3(=O)=O)cc(N3CCOCC3)cn2c(=O)c1O | 0.018 µM |
| 0.13 µM | 0.0002 µM | O=C(NCc1cc(Cl)cc(Cl)c1)c1nc2c(N3CCCS3(=O)=O)cc(N3CCOCC3)cn2c(=O)c1O | 0.043 µM |
| 0.11 µM | 0.008 µM | CC(=O)N1CCN(c2cc(Br)c3nc(C(=O)NCc4ccc(F)cc4)c(O)c(=O)n3c2)CC1 | 0.04 µM |

| IC50 [1] | EC50 [2] | SMILES | EC50 [3] |
| --- | --- | --- | --- |
|  | 0.28 µM | O=C(NCc1ccc(F)cc1)c1nc2c(N3CCCS3(=O)=O)cc(N3CCNCC3)cn2c(=O)c1O | 0.043 µM |
|  | 0.0198 µM | CN1CCN(c2cc(N(C)S(C)(=O)=O)c3nc(C(=O)NCc4ccc(F)cc4)c(O)c(=O)n3c2)CC1 | 0.0615 µM |
|  | 0.003 µM | CN1CCN(c2cc(N3CCN(C)S3(=O)=O)c3nc(C(=O)NCc4ccc(F)cc4)c(O)c(=O)n3c2)CC1 | 0.004 µM |
| 0.445 µM |  | O=C(NCc1ccc(F)cc1)c1nc2ccc(Br)cn2c(=O)c1O |  |
| 0.0768 µM |  | Cn1ccn2c(=O)c(O)c(C(=O)NCc3ccc(F)cc3)nc12 |  |
| > 100 µM |  | O=C(NCc1ccc(F)cc1)c1nc2[nH]c3ccccc3n2c(=O)c1O |  |
| 20.2 µM |  | Cn1c2ccccc2n2c(=O)c(O)c(C(=O)NCc3ccc(F)cc3)nc12 |  |
| > 100 µM |  | O=C(NCc1ccc(F)cc1)c1nc2cc(-c3ccccc3)[nH]n2c(=O)c1O |  |
| 13.7 µM |  | N#Cc1c[nH]n2c(=O)c(O)c(C(=O)NCc3ccc(F)cc3)nc12 |  |
| > 30 µM |  | Cn1ccc2nc(C(=O)NCc3ccc(F)cc3)c(O)c(=O)n21 |  |
| > 10 µM |  | O=C(NCc1ccc(F)cc1)c1nc2c3ccccc3[nH]n2c(=O)c1O |  |
| 0.626 µM |  | Cn1c2ccccc2c2nc(C(=O)NCc3ccc(F)cc3)c(O)c(=O)n21 |  |
| 33.2 µM |  | O=C(NCc1ccc(F)cc1)c1nc2sccn2c(=O)c1O |  |
| 4.25 µM |  | Cc1cn2c(=O)c(O)c(C(=O)NCc3ccc(F)cc3)nc2s1 |  |
| 0.587 µM |  | O=C(NCc1ccc(F)cc1)c1nc2ccccn2c(=O)c1O |  |
|  | 0.031 µM | CCN(C(=O)C(=O)N1CCOCC1)c1cccn2c(=O)c(O)c(C(=O)NCc3ccc(F)cc3)nc12 |  |
|  | 0.0094 µM | Cc1nnc(C(=O)NC(C)(C)c2nc(C(=O)NCc3ccc(F)cc3)c(O)c(=O)n2C)o1 [RALTEGRAVIR POTASSIUM] | 0.0071 µM |
